Activity calls are given as the source filed them. The calls are words filed in the database; no cut-off is given here.
Assays:
[1] = Cytotoxicity against hFB-hTERT6 assessed as reduction in cell viability after 72 hrs by MTT assay; details: Homo sapiens, hFB-hTERT6, 72 h
K562 = assay: Binding affinity to P-gp in human K562 cells assessed as drug accumulation at 1 uM incubated for 1 to 24 hrs by flow cytometry; format: cell-based
K562/4 = assay: Binding affinity to P-gp in human K562/4 cells assessed as drug accumulation at 1 uM incubated for 1 to 24 hrs by flow cytometry; format: cell-based
[2] = Cell cycle arrest in p53 knockout human HCT116 cells assessed as accumulation in G2/M phase at 1 uM after 24 hrs; format: functional, cell-based; details: HCT-116
HCT-116 [3] = assay: Induction of apoptosis in human HCT116 cells assessed as early apoptotic cells at 1 uM after 24 hrs by Annexin V-FITC/propidium iodide staining based assay (reference value: 2 +/- 1%); format: functional
HCT-116 [4] = assay: Induction of apoptosis in p53 knockout human HCT116 cells assessed as late apoptotic cells at 1 uM after 24 hrs by Annexin V-FITC/propidium iodide staining based assay (reference value: 2 +/- 1%); format: functional
Calf thymus DNA [5] = assay: Binding affinity to calf thymus DNA assessed as decrease in extinction of absorption maxima at 5 uM by spectrophotometric analysis; format: nucleic-acid assay; design: scale not given: the % may be the effect or the level left; details: Bos taurus
Calf thymus DNA [6] = assay: Binding affinity to calf thymus DNA at 5 uM by fluorescence assay; format: nucleic-acid assay; details: Bos taurus
[7] = target: T1, DNA topoisomerase 1 (Homo sapiens) (UniProt P11387); assay: Inhibition of topoisomerase 1 (unknown origin) assessed as attenuation of enzyme-mediated relaxation of supercoiled pBR322 DNA after 30 mins by agarose gel electrophoresis
T1 sequence (whole entry): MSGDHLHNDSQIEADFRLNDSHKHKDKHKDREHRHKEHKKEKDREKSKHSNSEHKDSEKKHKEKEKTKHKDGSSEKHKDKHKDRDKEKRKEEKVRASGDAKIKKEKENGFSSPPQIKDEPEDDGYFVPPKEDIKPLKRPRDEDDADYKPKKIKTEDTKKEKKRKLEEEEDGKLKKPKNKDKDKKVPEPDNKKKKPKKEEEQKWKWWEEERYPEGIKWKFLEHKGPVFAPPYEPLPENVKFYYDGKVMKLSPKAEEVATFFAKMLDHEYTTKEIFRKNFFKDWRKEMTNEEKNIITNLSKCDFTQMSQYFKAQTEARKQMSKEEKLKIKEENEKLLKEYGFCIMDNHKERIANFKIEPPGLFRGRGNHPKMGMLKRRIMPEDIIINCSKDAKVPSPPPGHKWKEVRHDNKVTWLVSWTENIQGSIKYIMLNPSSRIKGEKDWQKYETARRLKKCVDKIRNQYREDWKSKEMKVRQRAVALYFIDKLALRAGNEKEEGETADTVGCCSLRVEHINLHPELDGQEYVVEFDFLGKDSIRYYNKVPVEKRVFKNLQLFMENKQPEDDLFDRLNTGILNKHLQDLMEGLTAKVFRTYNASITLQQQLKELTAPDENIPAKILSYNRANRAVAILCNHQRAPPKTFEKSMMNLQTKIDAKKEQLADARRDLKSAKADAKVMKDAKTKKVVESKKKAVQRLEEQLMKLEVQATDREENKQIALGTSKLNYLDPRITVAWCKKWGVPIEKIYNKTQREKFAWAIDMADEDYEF

[8] = target: T1, DNA topoisomerase 1 (Homo sapiens); assay: Inhibition of topoisomerase 1 (unknown origin) assessed as attenuation of enzyme-mediated relaxation of supercoiled pBR322 DNA up to 1 uM after 30 mins by agarose gel electrophoresis
[9] = target: MAP kinase-interacting serine/threonine-protein kinase 1 (Homo sapiens, UniProt Q9BUB5); assay: Inhibition of human MKNK1 by flashplate based radiometric 33pan-quinase assay
MAP kinase-interacting serine/threonine-protein kinase 1, sequence (Q9BUB5 whole entry): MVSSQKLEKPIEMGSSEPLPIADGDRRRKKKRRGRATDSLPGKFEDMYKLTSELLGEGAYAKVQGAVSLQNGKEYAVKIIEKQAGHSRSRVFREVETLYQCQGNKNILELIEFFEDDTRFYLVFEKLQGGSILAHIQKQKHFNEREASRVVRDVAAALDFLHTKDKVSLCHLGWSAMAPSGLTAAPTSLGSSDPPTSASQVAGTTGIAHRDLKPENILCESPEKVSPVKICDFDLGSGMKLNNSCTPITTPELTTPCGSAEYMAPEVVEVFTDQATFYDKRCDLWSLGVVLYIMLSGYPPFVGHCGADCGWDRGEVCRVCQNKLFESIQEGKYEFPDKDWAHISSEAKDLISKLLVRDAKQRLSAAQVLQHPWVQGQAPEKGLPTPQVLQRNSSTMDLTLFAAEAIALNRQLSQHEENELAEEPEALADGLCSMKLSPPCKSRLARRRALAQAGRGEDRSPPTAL

Aurora kinase B = Aurora kinase B (Homo sapiens, UniProt Q96GD4); assay: Inhibition of full length human N-terminal GST-HIS6-tagged Aurora B expressed in sf9 cells by flashplate based radiometric 33pan-quinase assay
Aurora kinase B, sequence (Q96GD4 whole entry): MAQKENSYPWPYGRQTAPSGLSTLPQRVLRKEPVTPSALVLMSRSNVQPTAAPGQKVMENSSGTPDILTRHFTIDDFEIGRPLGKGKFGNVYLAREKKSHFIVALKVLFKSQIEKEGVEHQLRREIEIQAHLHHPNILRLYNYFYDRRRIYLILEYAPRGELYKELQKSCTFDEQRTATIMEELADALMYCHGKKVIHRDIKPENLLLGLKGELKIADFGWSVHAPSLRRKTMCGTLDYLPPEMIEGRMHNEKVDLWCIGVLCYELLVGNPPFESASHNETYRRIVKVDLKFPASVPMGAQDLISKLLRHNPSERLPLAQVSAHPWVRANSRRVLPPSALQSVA

Aurora kinase C = Aurora kinase C (Homo sapiens, UniProt Q9UQB9); assay: Inhibition of full length human N-terminal GST-HIS6-tagged Aurora C expressed in sf9 cells by flashplate based radiometric 33pan-quinase assay
Aurora kinase C, sequence (Q9UQB9 whole entry): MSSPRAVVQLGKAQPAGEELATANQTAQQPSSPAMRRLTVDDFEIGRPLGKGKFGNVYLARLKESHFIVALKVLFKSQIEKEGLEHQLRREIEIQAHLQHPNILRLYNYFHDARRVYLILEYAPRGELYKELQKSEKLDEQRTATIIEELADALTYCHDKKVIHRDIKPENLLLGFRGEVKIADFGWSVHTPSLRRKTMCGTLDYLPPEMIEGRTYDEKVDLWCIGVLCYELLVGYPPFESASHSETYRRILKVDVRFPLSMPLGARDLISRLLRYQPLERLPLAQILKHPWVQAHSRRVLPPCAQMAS

[10] = target: Serine/threonine-protein kinase pim-1 (Homo sapiens, UniProt P11309); assay: Inhibition of full length human N-terminal GST-HIS6-tagged PIM1 expressed in sf9 cells by flashplate based radiometric 33pan-quinase assay
Serine/threonine-protein kinase pim-1, sequence (P11309 whole entry): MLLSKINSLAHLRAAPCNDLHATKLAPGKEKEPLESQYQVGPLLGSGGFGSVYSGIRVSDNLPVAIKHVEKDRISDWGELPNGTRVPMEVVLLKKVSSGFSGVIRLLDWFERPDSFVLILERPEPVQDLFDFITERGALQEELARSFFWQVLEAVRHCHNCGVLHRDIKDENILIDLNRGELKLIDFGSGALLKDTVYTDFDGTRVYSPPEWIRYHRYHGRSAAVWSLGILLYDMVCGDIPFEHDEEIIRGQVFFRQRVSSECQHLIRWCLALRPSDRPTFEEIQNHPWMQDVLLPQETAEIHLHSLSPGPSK

[11] = target: Serine/threonine-protein kinase pim-3 (Homo sapiens, UniProt Q86V86); assay: Inhibition of full length human N-terminal GST-HIS6-tagged PIM3 expressed in sf9 cells by flashplate based radiometric 33pan-quinase assay
[12] = target: Dual serine/threonine and tyrosine protein kinase (Homo sapiens, UniProt Q6XUX3); assay: Inhibition of human RIPK5 by flashplate based radiometric 33pan-quinase assay
Dual serine/threonine and tyrosine protein kinase, sequence (Q6XUX3 whole entry): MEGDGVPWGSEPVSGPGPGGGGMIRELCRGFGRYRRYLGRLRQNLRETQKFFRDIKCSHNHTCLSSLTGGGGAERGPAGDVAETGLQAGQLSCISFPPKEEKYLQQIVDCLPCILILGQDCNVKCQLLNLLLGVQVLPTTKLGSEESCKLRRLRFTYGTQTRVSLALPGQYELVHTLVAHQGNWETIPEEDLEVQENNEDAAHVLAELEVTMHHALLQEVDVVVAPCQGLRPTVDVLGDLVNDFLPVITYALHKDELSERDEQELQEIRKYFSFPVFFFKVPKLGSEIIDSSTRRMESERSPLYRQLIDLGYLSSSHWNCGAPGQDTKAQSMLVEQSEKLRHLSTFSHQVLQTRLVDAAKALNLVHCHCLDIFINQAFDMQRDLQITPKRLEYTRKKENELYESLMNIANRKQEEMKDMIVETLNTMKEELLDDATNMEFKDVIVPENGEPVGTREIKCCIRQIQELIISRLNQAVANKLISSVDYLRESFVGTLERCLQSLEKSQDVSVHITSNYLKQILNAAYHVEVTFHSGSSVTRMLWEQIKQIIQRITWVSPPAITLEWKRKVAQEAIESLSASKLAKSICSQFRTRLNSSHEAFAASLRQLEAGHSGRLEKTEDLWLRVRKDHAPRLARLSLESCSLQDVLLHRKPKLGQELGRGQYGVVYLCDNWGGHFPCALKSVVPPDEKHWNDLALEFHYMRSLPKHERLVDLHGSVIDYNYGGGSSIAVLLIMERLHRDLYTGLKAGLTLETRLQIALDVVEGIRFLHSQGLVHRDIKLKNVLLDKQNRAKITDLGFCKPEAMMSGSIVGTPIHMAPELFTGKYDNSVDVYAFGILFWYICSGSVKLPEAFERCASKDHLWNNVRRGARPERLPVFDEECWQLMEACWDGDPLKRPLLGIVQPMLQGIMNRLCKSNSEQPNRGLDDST

P388 [13] = assay: Antitumor activity against mouse P388 cells transplanted in DBA2/BDF1 mouse assessed as mean life span at 30 mg/kg, ip dosed daily for 5 days (reference value: 9.6 to 9.7 day); format: functional
P388 [14] = assay: Antitumor activity against mouse P388 cells transplanted in DBA2/BDF1 mouse assessed as mean life span at 30 mg/kg, ip dosed daily for 5 days relative to control; format: functional
Mus musculus [15] = assay: Toxicity in DBA2/BDF1 mouse transplanted with mouse P388 cells assessed as reduction in spleen mass at 50 mg/kg, ip dosed daily for 5 days relative to control; format: organism-based; design: scale not given: the % may be the effect or the level left; details: in vivo, 120 h
P388 [16] = assay: Antitumor activity against mouse P388 cells transplanted in DBA2/BDF1 mouse assessed as mean life span at 10 mg/kg, ip dosed daily for 5 days (reference value: 9.6 +/- 0.5 day); format: functional
P388 [17] = assay: Antitumor activity against mouse P388 cells transplanted in DBA2/BDF1 mouse assessed as mean life span at 20 mg/kg, ip dosed daily for 5 days (reference value: 9.6 +/- 0.5 day); format: functional
P388 [18] = assay: Antitumor activity against mouse P388 cells transplanted in DBA2/BDF1 mouse assessed as mean life span at 10 mg/kg, ip dosed daily for 5 days relative to control; format: functional
Mus musculus [19] = assay: Toxicity in DBA2/BDF1 mouse transplanted with mouse P388 cells at 5 to 40 mg/kg, ip dosed daily for 5 days; format: organism-based; details: in vivo, 120 h
Mus musculus [20] = assay: Toxicity in mouse P388 cells transplanted DBA2/BDF1 mouse assessed as mouse mortality at 50 mg/kg, ip dosed daily for 5 days; format: organism-based; details: in vivo, 120 h
HeLa = assay: Antiproliferative activity against human HeLa cells after 72 hrs by MTT assay; format: functional, cell-based
P388 [21] = assay: Antitumor activity against mouse P388 cells transplanted in DBA2/BDF1 mouse assessed as mean life span at 50 mg/kg, ip dosed daily for 5 days relative to control; format: functional
P388 [22] = assay: Antitumor activity against mouse P388 cells transplanted in DBA2/BDF1 mouse assessed as mean life span at 30 mg/kg, ip dosed daily for 5 days (reference value: 9.7 +/- 1.1 day); format: functional
Calf thymus DNA [23] = assay: Binding affinity to calf thymus DNA assessed as dissociation constant by Scatchard plot analysis; format: nucleic-acid assay, Bos taurus
L1210 = assay: cells; details: Mus musculus, L1210, 48 h
Description: Antiproliferative activity against mouse L1210 cells after 48 hrs by MTT assay

Structure (SMILES)	IC50 [1] [µM]	Activity (K562)	Activity (K562/4)	Activity [2]	Activity (HCT-116 [3])	Activity (HCT-116 [4])	Activity (Calf thymus DNA [5]) [%]	Activity (Calf thymus DNA [6])	Activity [7]	Activity [8]	Activity (P388 [14]) [%]	also measured
CS(=O)(=O)O.Cc1oc2c(O)c3c(c(O)c2c1C(=O)N1CC[C@H](N)C1)C(=O)c1ccccc1C3=O	> 50	inactive	inactive	Active	20%	12%	36	Active	Dose-dependent effect	inactive	214	IC50 [9]: < 5 µM; IC50 (Aurora kinase B): < 5 µM; IC50 (Aurora kinase C): < 5 µM; IC50 [10]: < 5 µM; IC50 [11]: < 5 µM; IC50 [12]: < 5 µM; Activity (P388 [13]): 20.8 days; Activity (Mus musculus [15]): 40%; Activity (P388 [16]): 16.3 days; Activity (P388 [17]): 21.3 days; Activity (P388 [18]): 170%; Activity (Mus musculus [19]): Non-toxic; Activity (Mus musculus [20]): Toxic
CS(=O)(=O)O.Cc1oc2c(O)c3c(c(O)c2c1C(=O)N1CC[C@@H](N)C1)C(=O)c1ccccc1C3=O	> 50	inactive	inactive	Active	Active	Active	36	Active	Dose-dependent effect	inactive	122	IC50 (HeLa): 2100 nM; Activity (P388 [21]): 178%; Activity (P388 [22]): 11.8 days; Kd (Calf thymus DNA [23]): 2000 nM; IC50 (L1210): 1900 nM
